In patent US6346615B1, “Chemiluminescent 1,2-dioxetanes” (Tropix, Inc., priority 1989, dated 2002):

Tests used:
alkaline phosphatase [1] = experiment: Quantum yield determination of dioxetane chemiluminescence after alkaline phosphatase addition; type: biochemical; conditions: 0.1M DEA, pH, 25° C., dioxetane concentration 3.7 × 10^−7M to 6 × 10^−6M
Text: Various dioxetanes within the scope of this invention have been prepared and tested for essential properties, such as quantum yield (performed by an independent laboratory according to the procedure listed below), T½ and the emission wavelength maxima. These dioxetanes are identified by number, and in the tables following after the number, the identity of the substituent on the adamantyl ring, if any followed by the identity of the Z substituent is given. In the compounds tested, X is phosphate. Values for quantum yield and T½ are obtained both for the dioxetane along in 0.1 molar DEA, and in the presence of an enhancement agent, Sapphire II.
[…] […] […] The tube was then placed in MGM Optocomp® I luminometer and the light signal was measured at 1 sec integration times. […] The total counts for the dioxetane were determined from the intensity data. Total counts observed for a given concentration of dioxetane is the product of Photon Detection Efficiency (PDE) of the luminometer, the quantum yield of dioxetane and the number of molecules capable of emitting light (concentration of dephosphorylated dioxetanes). PDE for the MGM Optocomp® I luminometer was determined to be 2.56×10^−3, measured with a Biolink® absolute standard and utilizing the known spectral response of the luminometer's PMT and the known emission spectrum of the dioxetanes. The quantum yield is calculated by dividing the total counts measured by the PDE and the concentration of the dioxetane.

alkaline phosphatase [2] = experiment: Chemiluminescence emission wavelength maximum (Spex Fluorolog); type: biochemical; conditions: for μL em: 0.1M DEA, pH, 25° C., dioxetane concentration 3.7 × 10^−7M to 6 × 10^−6M; for Emission Max, nm, +BDMQ: in the presence of BDMQ; for Emission Max, nm, No Addition: no enhancement agent; for Emission Max, nm, On Nylon: on a nylon membrane
Procedure: […] The solution was equilibrated 5 minutes in a Spex Fluorolog Fluorimeter and then scanned 5 times at 0.5 sec/nm for chemiluminescent emission. The chemiluminescence emission wavelength maximum was recorded.

Row | Compound | Quantum Yield (alkaline phosphatase [1]) | Quantum Yield (alkaline phosphatase [1]; second table) | μL em (alkaline phosphatase [2]) | μL em (alkaline phosphatase [2]; second table) | Emission Max, nm, +BDMQ (alkaline phosphatase [2]) | Emission Max, nm, No Addition (alkaline phosphatase [2]) | Emission Max, nm, On Nylon (alkaline phosphatase [2])
1 | COC1(c2cccc(OP(=O)(O)O)c2)OOC12C1CC3CC(C1)CC2C3 (stereo not drawn) [AMPPD, 3-(2′-spiroadamantane)4-methoxy-4-(3″-phosphoryloxy)phenyl-1,2-dioxetane, reference compound] | 1.5 × 10^−5 | 1.5 × 10^−5 | 477 | 477 | – | – | –
2 | COC1(c2cccc(OP(=O)(O)O)c2)OOC12C1CC3CC2CC(Cl)(C3)C1 (stereo not drawn) [CSPD, reference compound] | 5.2 × 10^−5 | 5.2 × 10^−5 | 475 | 475 | – | – | –
3 | COC1(c2cc(Cl)cc(OP(=O)([O-])[O][NaH2-2])c2)OOC12C1CC3CC(C1)CC2C3.[Na+] (stereo not drawn) [Dioxetane 128-70, Disodium 3-chloro-5-(methoxyspiro(1,2-dioxetane-3,2′-tricylo[3.3.1.1^3,7]-decan]-4-yl)-1-phenyl Phosphate] | 1.4 × 10^−4 | 1.4 × 10^−4 | 471 | 471 | 463 nm | 471 nm | 461 nm
4 | COC1(c2cc(Cl)cc(OP(=O)([O-])[O][NaH2-2])c2)OOC12C1CC3CC2CC(Cl)(C3)C1.[Na+] (stereo not drawn) [Dioxetane 128-87, Disodium 3-chloro-5-(methoxyspiro(1,2-dioxetane-3,2′-(5-chloro-)tricyclo-[3.3.1.1^3,7]-decan]-4-yl)-1-phenyl Phosphate] | 1.2 × 10^−4 | 1.2 × 10^−4 | 470 | 470 | 464 nm | 470 nm | 459 nm
5 | COc1cc(OP(=O)([O-])[O][NaH2-2])cc(C2(OC)OOC23C2CC4CC3CC(Cl)(C4)C2)c1.[Na+] (stereo not drawn) [Dioxetane 140-17, Disodium 5-methoxy-3-(methoxyspiro(1,2-dioxetane-3,2′-(5-chloro-)tricyclo-[3.3.1.1^3,7]-decan]-4-yl)-1-phenyl Phosphate] | 2.3 × 10^−5 | 2.3 × 10^−5 | 475 | 475 | 464 nm | 475 nm | 463 nm
6 | COc1cc(OP(=O)([O-])[O][NaH2-2])cc(C2(OC)OOC23C2CC4CC(C2)CC3C4)c1.[Na+] (stereo not drawn) [Dioxetane 140-20, Disodium 5-methoxy-3-(methoxyspiro(1,2-dioxetane-3,2′-tricyclo[3.3.1.1^3,7]-decan]-4-yl)-1-phenyl Phosphate] | 1.5 × 10^−5 | 1.5 × 10^−5 | 476 | 476 | 466 nm | 476 nm | 461 nm
